Reference: patent USRE37556E1, “Superoxide radical inhibitor” (Otsuka Pharmaceutical Co., Ltd., priority 1990, dated 2002)

Assays:
heart muscle = test: Inhibition of heart muscle necrosis in rat caused by clogging of the coronary artery and subsequent blood reperfusion (tissue CPK); format: in vivo; conditions: male SD rats; 6 mg/kg intravenously 5 minutes before ligature; ischemic area 2 hours after reperfusion; p < 0.05 vs control
Experimental: 1 (4) Activity for inhibiting the heart muscle necrosis in rat caused by clogging of the coronary artery and subsequent blood reperfusion
Male rats of SD strain (7-10 week old, 250-350 g) were used in this test. The activity of creatine phosphokinase (CPK) in tissue was used as an indication of heart muscle necrosis.
A test compound was dissolved in a small amount of 1N aqueous NaOH solution, then diluted with a physiological saline solution, and administered at a dose of 1 ml/kg of body weight. Each rat was anesthetized with pentobarbital and thoracotomized under artifical respiration; the descending branch before left coronary artery was ligated with a piece of silk string for 12 minutes; then, the blood was reperfused. Thereafter, the thoracotomized chest was closed and the rat was waken from anesthesia. 2 hours after reperfusion, the heart was enucleated under anesthesia; only the ischemic area was homogenized; and the activity of CPK contained therein was measured. The test compound was intravenously administered at a dose of 6 mg/kg 5 mintues before ligature of the coronary artery.
The results on the NaOH/physiological saline solution-administered group as a control and the compound-administered group are shown in Table 19.

[1] = test system: human neutrophilic leukocytes; test: Inhibition of superoxide radical (O2-) generation in FMLP-stimulated human neutrophilic leukocytes (ferricytochrome C method); format: cell-based; conditions: Homo sapiens, Leukocyte
From the text: (1) Activity for inhibiting the generation of superoxide radical (O2^−) in human neutrophilic leukocytes
That is, a whole blood obtained from a healthy adult and treated by anticoagulation method was subjected to a dextranhypotonic treatment to obtain leukocyte cells. The leukocyte cells were then subjected to a density gradient ultracentrifugation by Ficoll-Paque to obtain a neutrophilic leukocyte fraction.
O2^− generation was examined by the ferricytochrome C method in accordance with the method of B. N. Cronstein et al. [Journal of Experimental Medicine, vol. […] Each test compound was dissolved in dimethyl sulfoxide (DMSO); the solution was added to neutrophilic leukocytes before the addition of FMLP; then, the neutrophilic leukocytes were pre-incubated at 37° C.

- IC50 ([1]; Table 16, comparative test present compounds vs prior art compounds, NE = not effective): 10 nM
- IC50 ([1]; pH 7.4, Table 15, O2- generation, 3x10^-7 M FMLP, cytochalasin B, 37° C., pH 7.4): 10 nM
SMILES: CCOc1ccc(-c2nc(-c3ccc(O)c(C(=O)O)c3)cs2)cc1OCC [compound 62, 4-(3-Carboxy-4-hydroxyphenyl)-2-(3,4-diethoxy-phenyl)thiazole]
- Activity of creatine phosphokinase in tissue, Mean ± S.E. (heart muscle): 19.53 ± 1.56 U/mg of protein
